According to ChEMBL document CHEMBL1201862, “PubChem BioAssay data set” (2004):
Active and inactive are the calls of the source.

Columns and labels:
[1] = biological target: Beta-2 adrenergic receptor (Homo sapiens, UniProt P07550); experiment: ADRB2 activation measured by internalization – cell-based, FAP fluorogen, flow cytometry, cherry pick 1, dose response (AID 588763); assay type: functional
HEK293 = experiment: cells; assay type: functional, cell-based; conditions: Homo sapiens
Leucine aminopeptidase = biological target: T1, Leucine aminopeptidase (Plasmodium falciparum 3D7, UniProt Q8IL11); experiment: P. falciparum M17LAP inhibitors, primary screen, biochemical, fluorogenic H-Leu-NHMec substrate, 1536-well (AID 1619); assay type: functional
T1 sequence (Q8IL11 whole entry): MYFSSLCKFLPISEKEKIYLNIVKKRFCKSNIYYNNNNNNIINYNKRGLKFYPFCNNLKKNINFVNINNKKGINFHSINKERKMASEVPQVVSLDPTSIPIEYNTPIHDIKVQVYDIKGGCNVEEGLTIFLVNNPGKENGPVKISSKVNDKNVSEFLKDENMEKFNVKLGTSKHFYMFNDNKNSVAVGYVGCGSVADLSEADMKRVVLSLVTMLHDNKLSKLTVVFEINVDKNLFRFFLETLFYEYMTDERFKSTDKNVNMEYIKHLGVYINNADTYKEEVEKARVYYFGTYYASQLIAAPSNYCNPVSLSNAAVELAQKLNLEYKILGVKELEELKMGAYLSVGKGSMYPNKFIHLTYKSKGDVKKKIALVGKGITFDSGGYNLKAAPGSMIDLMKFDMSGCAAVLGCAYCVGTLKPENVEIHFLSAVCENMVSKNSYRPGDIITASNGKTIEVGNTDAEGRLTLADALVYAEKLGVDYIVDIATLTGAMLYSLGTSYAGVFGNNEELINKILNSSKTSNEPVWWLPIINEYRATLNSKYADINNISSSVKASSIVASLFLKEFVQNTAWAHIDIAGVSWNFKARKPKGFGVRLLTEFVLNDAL

[2] = biological target: T2, Nuclear receptor subfamily 0 group B member 1 (Homo sapiens, UniProt P51843); experiment: Luminescence-based cell-based high throughput dose response assay for inhibitors of the orphan nuclear receptor subfamily 0, group B, member 1 (DAX1; NR0B1). [Related pubchem assays (depositor defined):AID504766, AID504790]; assay type: functional
T2 sequence (P51843 whole entry): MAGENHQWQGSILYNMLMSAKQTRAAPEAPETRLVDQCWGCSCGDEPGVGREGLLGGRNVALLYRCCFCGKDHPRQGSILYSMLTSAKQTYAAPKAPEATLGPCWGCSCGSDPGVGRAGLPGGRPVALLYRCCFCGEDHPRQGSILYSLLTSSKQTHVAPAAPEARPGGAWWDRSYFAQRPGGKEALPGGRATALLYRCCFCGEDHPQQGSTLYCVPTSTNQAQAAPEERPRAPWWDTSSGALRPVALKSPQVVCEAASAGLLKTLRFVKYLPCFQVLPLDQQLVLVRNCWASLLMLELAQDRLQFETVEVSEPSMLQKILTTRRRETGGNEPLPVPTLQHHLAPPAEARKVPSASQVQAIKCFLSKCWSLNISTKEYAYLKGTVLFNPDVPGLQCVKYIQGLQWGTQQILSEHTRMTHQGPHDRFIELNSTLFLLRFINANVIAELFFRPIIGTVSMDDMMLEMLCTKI

Cytochrome P450 1A2 = biological target: T3, Cytochrome P450 1A2 (Homo sapiens, UniProt P05177);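 note: PubChem cytochrome P450 panel assay, CYP1A2 panel member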
T3 sequence (P05177 whole entry): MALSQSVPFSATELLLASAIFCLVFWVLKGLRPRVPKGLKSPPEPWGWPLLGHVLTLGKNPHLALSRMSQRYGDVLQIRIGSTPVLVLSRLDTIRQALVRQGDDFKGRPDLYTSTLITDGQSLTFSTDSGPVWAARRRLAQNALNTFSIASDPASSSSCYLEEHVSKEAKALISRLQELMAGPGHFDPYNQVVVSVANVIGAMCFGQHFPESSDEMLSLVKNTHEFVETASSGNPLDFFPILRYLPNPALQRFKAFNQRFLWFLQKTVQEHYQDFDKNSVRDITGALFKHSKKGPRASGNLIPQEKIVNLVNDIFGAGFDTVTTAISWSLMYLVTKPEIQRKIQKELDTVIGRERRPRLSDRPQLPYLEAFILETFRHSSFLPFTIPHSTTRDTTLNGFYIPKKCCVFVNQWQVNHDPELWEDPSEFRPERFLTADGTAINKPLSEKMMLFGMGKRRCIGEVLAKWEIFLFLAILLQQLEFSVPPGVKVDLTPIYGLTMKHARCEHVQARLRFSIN

Cytochrome P450 2C9 = Cytochrome P450 2C9 (Homo sapiens, UniProt P11712)
Beta Lactamase = Beta Lactamase (Pseudomonas aeruginosa, UniProt Q932Y6); experiment: BLA reporter interference, concentration series – BLA reporter cells, FRET fluorescence, artefact control for TLR9-MyD88 binding inhibitor project, dose response (AID 588341); assay type: cell-based;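 note: cell based assay in CHO-K1 cells stably expressing beta-lactamase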
Streptococcus = experiment: GAS UMAA2166 growth inhibition – luminescence, BacTiterGlo, counter-screen for streptokinase expression inhibitor project, dose response (AID 1915); assay type: functional, organism-based;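 note: potency for reduction of bacterial viability or growth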
INS1 = experiment: INS-1E survival protection against cytokine death – cell-based, luminescence, retest, dose response (AID 449756); assay type: functional; conditions: Rattus norvegicus;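 note: cell death triggered by IL-1 beta plus TNF-alpha plus IFN-gamma mixture; protective hits raise ATP signal compared with cytokine alone wells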
[3] = Luminescence Cell-Based Dose Response HTS to Identify Inhibitors of 5'UTR Stem-Loop Driven Prion Protein mRNA Translation in H4 Neuroglioblastoma Cells. [Related pubchem assays: 1827 (Project Summary), 1813 (Primary HTS)]; assay type: functional
[4] = loss of viability in HepG2 cells – cell-based, CellTiter-Glo, cherry-picked, cytotoxicity control for Shn3 inhibitor project, dose response (AID 624134); assay type: functional
[5] = non-specific 3'UTR reporter inhibition in Clone20-Shn3RL – cell-based, Renilla luciferase, cherry-picked, counter-screen for Shn3 inhibitor project, dose response (AID 624133); assay type: functional
Streptokinase A = biological target: T4, Streptokinase A (Streptococcus pyogenes serotype M1, UniProt P10520); experiment: viability-normalized secreted streptokinase activity reduction – plasminogen activation absorbance, OD405, dose response (AID 1914); assay type: functional, Streptococcus pyogenes M1 GAS;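 note: secreted streptokinase activity via plasminogen activation per viability signal from cell pellet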
T4 sequence (P10520 whole entry): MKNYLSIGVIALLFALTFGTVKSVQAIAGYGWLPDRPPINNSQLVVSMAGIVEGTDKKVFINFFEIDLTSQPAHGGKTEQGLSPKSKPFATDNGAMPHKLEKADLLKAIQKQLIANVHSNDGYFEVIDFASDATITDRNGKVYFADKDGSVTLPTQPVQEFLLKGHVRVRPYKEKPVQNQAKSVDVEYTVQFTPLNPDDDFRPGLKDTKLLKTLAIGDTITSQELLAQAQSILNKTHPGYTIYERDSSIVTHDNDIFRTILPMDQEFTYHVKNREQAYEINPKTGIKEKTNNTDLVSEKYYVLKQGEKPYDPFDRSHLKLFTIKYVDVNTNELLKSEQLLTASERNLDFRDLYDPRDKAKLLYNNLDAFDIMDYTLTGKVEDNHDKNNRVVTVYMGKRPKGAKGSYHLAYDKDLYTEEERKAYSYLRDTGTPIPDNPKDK

CHO = CHO cell viability loss, potency – luminescence, cytotoxicity control for TLR9-MyD88 binding inhibitor project, dose response (AID 588339); assay type: functional, cell-based, hamster; conditions: Cricetulus griseus;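 note: CHO cells stably coexpressing TLR9 and MyD88 fusions from primary screen; compound exposure lasted 48 hours before viability readout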
[6] = alpha-synuclein stem-loop luciferase translation blockers – H4 neuroglioma cells, luminescence, confirmation (AID 1988); assay type: functional, cell-based
[7] = system: Streptococcus sp. 'group A'; experiment: Streptococcus pyogenes SK(-)GAS viability under kanamycin – luminescence, BacTiterGlo, confirmation, counter-screen for streptokinase expression inhibitor project, dose response (AID 1900); assay type: functional, organism-based
A-375 = experiment: proliferation inhibition in MITF-low A375 cells – cell-based, cherry-pick samples, set 2, counter-screen for MITF modulator project, dose response (AID 540335); assay type: functional; conditions: Homo sapiens
[8] = biological target: T5, Microphthalmia-associated transcription factor (Homo sapiens, UniProt O75030); experiment: reducers of TRPM1 reporter luminescence, concentration series – cell-based, SK-MEL-5, cherry-picked, set 3, MITF inhibitor project, dose response (AID 493073); assay type: functional;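 note: SK-MEL-5 melanoma cells with luciferase driven by the MITF target TRPM1 promoter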
T5 sequence (O75030 whole entry): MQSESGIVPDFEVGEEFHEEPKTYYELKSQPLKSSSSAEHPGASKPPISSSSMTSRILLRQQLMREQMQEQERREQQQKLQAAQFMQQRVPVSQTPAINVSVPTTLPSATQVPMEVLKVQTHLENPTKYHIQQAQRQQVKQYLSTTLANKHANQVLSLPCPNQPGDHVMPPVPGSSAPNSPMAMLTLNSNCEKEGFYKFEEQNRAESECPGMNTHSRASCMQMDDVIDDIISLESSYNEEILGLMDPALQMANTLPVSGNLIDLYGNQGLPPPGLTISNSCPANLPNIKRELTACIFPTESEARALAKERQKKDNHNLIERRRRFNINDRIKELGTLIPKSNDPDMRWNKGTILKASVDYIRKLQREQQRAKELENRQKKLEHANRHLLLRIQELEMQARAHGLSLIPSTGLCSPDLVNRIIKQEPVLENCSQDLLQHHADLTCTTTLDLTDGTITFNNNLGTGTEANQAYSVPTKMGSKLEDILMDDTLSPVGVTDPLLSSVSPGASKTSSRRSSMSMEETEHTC

[9] = luciferase reporter signal suppression in cells – H4 neuroglioma cells, luminescence, dose response (AID 1990); assay type: functional, cell-based
[10] = reduction of Shn3 3'UTR-driven luciferase in osteoblasts – cell-based, Clone20 osteoblasts, firefly luciferase, cherry-picked, dose response (AID 624132); assay type: functional;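 note: firefly luciferase luminescence from reporter carrying the Shn3 3'UTR in osteoblasts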

Sequence of Beta-2 adrenergic receptor (P07550 whole entry): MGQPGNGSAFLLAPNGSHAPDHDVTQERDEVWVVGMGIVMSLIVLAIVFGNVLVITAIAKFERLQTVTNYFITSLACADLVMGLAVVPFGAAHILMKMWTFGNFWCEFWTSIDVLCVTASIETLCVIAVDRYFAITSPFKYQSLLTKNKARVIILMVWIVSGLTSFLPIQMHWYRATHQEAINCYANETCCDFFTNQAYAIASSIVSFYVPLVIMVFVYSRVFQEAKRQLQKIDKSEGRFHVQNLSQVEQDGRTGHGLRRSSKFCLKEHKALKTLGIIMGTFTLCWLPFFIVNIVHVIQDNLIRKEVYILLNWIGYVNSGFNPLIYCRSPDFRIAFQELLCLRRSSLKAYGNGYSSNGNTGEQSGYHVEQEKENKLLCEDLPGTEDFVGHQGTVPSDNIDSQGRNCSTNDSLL
Sequence of Beta Lactamase (Q932Y6 whole entry): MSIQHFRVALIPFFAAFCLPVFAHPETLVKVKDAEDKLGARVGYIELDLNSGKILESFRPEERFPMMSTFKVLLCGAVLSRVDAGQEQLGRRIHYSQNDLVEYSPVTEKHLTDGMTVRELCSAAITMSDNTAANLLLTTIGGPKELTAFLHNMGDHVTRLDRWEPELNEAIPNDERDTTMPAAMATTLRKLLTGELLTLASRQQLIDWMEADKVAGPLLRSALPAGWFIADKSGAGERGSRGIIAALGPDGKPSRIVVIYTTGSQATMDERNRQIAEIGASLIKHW
Sequence of Cytochrome P450 2C9 (P11712 whole entry): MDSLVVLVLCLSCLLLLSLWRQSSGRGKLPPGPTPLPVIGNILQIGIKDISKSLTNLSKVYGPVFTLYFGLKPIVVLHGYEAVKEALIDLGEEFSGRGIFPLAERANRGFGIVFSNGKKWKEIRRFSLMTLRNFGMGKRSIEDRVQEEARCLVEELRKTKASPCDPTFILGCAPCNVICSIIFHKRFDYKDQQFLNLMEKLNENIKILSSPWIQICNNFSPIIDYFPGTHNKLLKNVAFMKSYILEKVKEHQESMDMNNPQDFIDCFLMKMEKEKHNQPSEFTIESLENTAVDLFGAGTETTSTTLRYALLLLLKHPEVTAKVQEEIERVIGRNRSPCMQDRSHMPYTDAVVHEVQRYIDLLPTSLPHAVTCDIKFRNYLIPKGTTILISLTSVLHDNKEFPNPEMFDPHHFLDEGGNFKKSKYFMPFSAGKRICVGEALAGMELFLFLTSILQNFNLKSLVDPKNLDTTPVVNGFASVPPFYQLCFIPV

Which EC50 [1] does the source give for `CCN(Cc1ccccc1)S(=O)(=O)c1cc(C(=O)NC(C)C2CC3CCC2C3)ccc1OC` (stereo not drawn) here?
The EC50 was 8.76 µM (active).

With `Cc1ccc(S(=O)(=O)Oc2cccc(N3C(=O)C4CC=CCC4C3=O)c2)cc1` (stereo not drawn) as the compound, how does the IC50 (HEK293) read?
Its IC50 is > 67.5 µM (inactive).

What about the IC50 (Leucine aminopeptidase) of the same compound?
Its IC50 is 49.6 µM (active).

And the IC50 [2]?
Its IC50 is > 67.5 µM (inactive).

What does the source list for `O=C(C[n+]1cccc(NC(=O)c2ccccc2)c1)c1ccc(NC(=O)c2ccccc2)cc1`?
AC50 (Cytochrome P450 1A2): 17.8 µM (inconclusive); EC50 [1]: 2.76 µM (active); AC50 (Cytochrome P450 2C9): 5.62 µM (inconclusive)

For `CCOC(=O)c1ccc(NC(=O)c2nc(S(=O)(=O)Cc3ccccc3)ncc2Cl)cc1`, which IC50 (Beta Lactamase) is on record?
Its IC50 is 8.4 µM (active).

What about the EC50 (Streptococcus) of the same compound?
Its EC50 is 10 µM (active).

And the AC50 (INS1)?
Its AC50 is 6.7 µM (active).

And the EC50 [3]?
The EC50 was 10.3 µM (active).

What about the AC50 [4] of the same compound?
Its AC50 is 28.9 µM (active).

What about the AC50 [5] of the same compound?
Its AC50 is 7.7 µM (active).

What about the EC50 (Streptokinase A) of the same compound?
The EC50 was 2.11 µM (active).

And the IC50 (CHO)?
Its IC50 is 1.95 µM (active).

And the EC50 [6]?
Its EC50 is 10.8 µM (active).

And the EC50 [7]?
The EC50 was 6.81 µM (active).

What about the AC50 (A-375) of the same compound?
The AC50 was 36.6 µM (active).

And the AC50 [8]?
The AC50 was 9.92 µM (active).

And the EC50 [9]?
Its EC50 is > 120 µM (not active).

And the AC50 [10]?
The AC50 was 0.572 µM (active).

With `CSCC[C@H](NC(=O)OC(C)(C)C)C(=O)N1CCC(C(=O)N[C@@H](C)C(=O)NC(C)c2ccccc2)CC1` (stereo partly drawn) as the compound, how does the IC50 (HEK293) read?
Its IC50 is > 67.5 µM (inactive).

And the IC50 [2]?
The IC50 was > 67.5 µM (inactive).
